The results in this text go back to PubChem BioAssay (NCI).

Some test systems named below: SK-MEL-5 melanoma; UACC-62 melanoma; SNB-75 CNS; NCI-H460 lung; COLO 205 colon; HCC-2998 colon; M14 melanoma; RPMI-8226 leukemia; KM12 colon; EKVX NSCLC.
What all share (assay): inhibition of tumour cell growth, NCI panel, 48 h

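Test compounds were applied to cells in 96-well plates for 48 hours at 5 doses. GI50 = concentration required for 50% inhibition of growth. Definition used: TGI = concentration required for complete inhibition of growth.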

Take `COC1=CC(c2ccc[nH]2)=N/C1=C\c1[nH]c(C)c(C(=O)CCCCC(=O)NC(C)(C)C)c1C`: the GI50 with SK-MEL-5 melanoma was 1.97 µM; in the assay on UACC-62 melanoma, 3.59 µM; in the assay with SNB-75 CNS it was 2.79 µM; in the assay with NCI-H460 lung, 1.87 µM; with COLO 205 colon, 1.22 µM; in the assay on HCC-2998 colon, 1.88 µM. Also, the GI50 was 1.62 µM with M14 melanoma, 0.237 µM in the assay with RPMI-8226 leukemia, 1.16 µM in the assay with KM12 colon and 1.96 µM with EKVX NSCLC. In addition, the TGI is 5.24 µM in the assay on SK-MEL-5 melanoma; 10.8 µM in the assay on UACC-62 melanoma; 9 µM with SNB-75 CNS; 4.52 µM with NCI-H460 lung; 2.46 µM in the assay on COLO 205 colon; 6.09 µM in the assay with HCC-2998 colon. Also, the TGI with M14 melanoma turned out to be 3.1 µM; with RPMI-8226 leukemia, 1.64 µM; with KM12 colon, 2.38 µM; in the assay on EKVX NSCLC it was 13 µM.
`Nc1nc(N)c2nc(CNc3ccc(C(=O)NC(CC(=O)O)C(=O)O)cc3)cnc2n1` (stereo not given): the GI50 was 3.33 µM in the assay on SK-MEL-5 melanoma; 3.09 µM in the assay on UACC-62 melanoma; 22.2 µM in the assay with SNB-75 CNS; 0.354 µM in the assay on NCI-H460 lung; 31 µM with COLO 205 colon; 1.07 µM in the assay with HCC-2998 colon. The GI50 is 0.556 µM with M14 melanoma, 6.43 µM in the assay on RPMI-8226 leukemia, 0.897 µM in the assay with KM12 colon and 1.57 µM in the assay on EKVX NSCLC. The TGI with SK-MEL-5 melanoma, with UACC-62 melanoma, in the assay with SNB-75 CNS, in the assay with NCI-H460 lung, with COLO 205 colon and in the assay on HCC-2998 colon was greater than 100 µM each time. Further, the TGI in the assay on M14 melanoma, in the assay on RPMI-8226 leukemia, with KM12 colon and in the assay on EKVX NSCLC was greater than 100 µM throughout.
As to `COc1ccc(C2CC(C)(O)Oc3cc4c(cc32)OCO4)cc1` (stereo not given), the TGI in the assay with SK-MEL-5 melanoma was 69 µM; in the assay on UACC-62 melanoma it was greater than 100 µM; in the assay on SNB-75 CNS, greater than 100 µM; in the assay on NCI-H460 lung, greater than 100 µM; in the assay on COLO 205 colon, 46 µM; in the assay with HCC-2998 colon, greater than 100 µM. Besides, the TGI with M14 melanoma is greater than 87.8 µM; in the assay on RPMI-8226 leukemia, greater than 100 µM; in the assay on KM12 colon, greater than 100 µM; in the assay with EKVX NSCLC, greater than 100 µM.
Regarding `O=C(Cn1c(=O)c(-c2ccccc2)nc2ccccc21)Nc1ccc(F)cc1`, the GI50 in the assay with SK-MEL-5 melanoma was 7.38 µM; with UACC-62 melanoma, 67.5 µM; with SNB-75 CNS, 38.8 µM; in the assay on NCI-H460 lung, greater than 100 µM; with COLO 205 colon, greater than 100 µM; in the assay with HCC-2998 colon, greater than 100 µM. Besides, the GI50 in the assay on M14 melanoma is greater than 100 µM; in the assay on RPMI-8226 leukemia it was 37.4 µM; in the assay with KM12 colon, greater than 100 µM; with EKVX NSCLC, 87.1 µM. Also, the TGI in the assay on SK-MEL-5 melanoma, in the assay on UACC-62 melanoma, in the assay on SNB-75 CNS, with NCI-H460 lung, with COLO 205 colon and with HCC-2998 colon was greater than 100 µM each time. Also, the TGI in the assay on M14 melanoma, with RPMI-8226 leukemia, with KM12 colon and in the assay with EKVX NSCLC was greater than 100 µM throughout.
As to `COc1ccc2c(c1)[n+]([O-])c(-c1ccc(OC)c(OC)c1)c(N)[n+]2[O-]`, the TGI is 83 µM in the assay with SK-MEL-5 melanoma; greater than 100 µM with UACC-62 melanoma; greater than 100 µM in the assay on SNB-75 CNS; greater than 100 µM in the assay on NCI-H460 lung; 34.5 µM with COLO 205 colon; greater than 100 µM with HCC-2998 colon. Also, the TGI with M14 melanoma, with RPMI-8226 leukemia, in the assay on KM12 colon and in the assay with EKVX NSCLC was greater than 100 µM in each case.
